Data as given in US6737383B1, “Herbicidal oxadiazolidines” (priority 1999, dated 2004).

Assays:
cocklebur = assay: Test B pre/postemergence cocklebur; type: in vivo, Xanthium strumarium
Outline: (§1)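 Test chemicals in a non-phytotoxic solvent mixture with surfactant were sprayed preemergence onto planted seeds and postemergence onto plants 2 to 18 cm tall (1- to 4-leaf stage). After twelve to sixteen days in a greenhouse, injury was visually rated against untreated controls from 0 (no effect) to 10 (complete control).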

corn = assay: Test B pre/postemergence corn; type: in vivo, Zea mays
Outline: as §1

crabgrass = assay: Test B pre/postemergence crabgrass; type: in vivo, Digitaria sanguinalis
Outline: as §1

giant foxtail = assay: Test B pre/postemergence giant foxtail; type: in vivo, Setaria faberii
Outline: as §1

morningglory = assay: Test B pre/postemergence morningglory; type: in vivo, Ipomoea hederacea
Outline: as §1

pigweed = assay: Test B pre/postemergence pigweed; type: in vivo, Amaranthus retroflexus
Outline: as §1

rape = assay: Test B pre/postemergence rape; type: in vivo, Brassica napus
Outline: as §1

soybean = assay: Test B pre/postemergence soybean; type: in vivo, Glycine max
Outline: as §1

sugar beet = assay: Test B pre/postemergence sugar beet; type: in vivo, Beta vulgaris; conditions: for Plant response rating, Sugarbeets: Rate 250 g/ha
Outline: as §1

velvetleaf = assay: Test B pre/postemergence velvetleaf; type: in vivo, Abutilon theophrasti; conditions: for Plant response rating, Velvetleaf: Rate 250 g/ha
Outline: as §1

wheat = assay: Test B pre/postemergence wheat; type: in vivo, Triticum aestivum; conditions: for Plant response rating, Wheat: Rate 250 g/ha
Outline: as §1

wild oat = assay: Test B pre/postemergence wild oat; type: in vivo, Avena fatua; conditions: for Plant response rating, Wild oats: Rate 250 g/ha
Outline: as §1

purple nutsedge = assay: Test B pre/postemergence purple nutsedge; type: in vivo, Cyperus rotundus
Outline: as §1

rice = assay: Test B flood test rice; type: in vivo, Oryza sativa
Outline: (§2)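 Each value is a visual injury score relative to controls, with 10 meaning complete control and 0 no effect. Evaluation took place twelve to sixteen days after the 2-leaf-stage plants were treated and kept in the greenhouse.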

duck salad = assay: Test B flood test duck salad; type: in vivo, Heteranthera limosa
Outline: as §2

bamyardgrass = assay: Test B flood test barnyardgrass; type: in vivo, Echinochloa crus-galli
Outline: as §2

[1] = Postemergence, Rate 125 g/ha, scale of 0 to 10 where 0 is no effect and 10 is complete control
[2] = Postemergence, Rate 250 g/ha, scale 0 to 10, 0 no effect, 10 complete control
[3] = Preemergence, Rate 62 g/ha, scale 0 to 10 (0 no effect, 10 complete control)
[4] = Preemergence, Rate 125 g/ha, scale 0 to 10 (0 no effect, 10 complete control)
[5] = Preemergence, Rate 250 g/ha, scale of 0 to 10 where 0 is no effect and 10 is complete control
[6] = Rate 62 g/ha, Postemergence, scale of 0 to 10 where 0 is no effect and 10 is complete control
[7] = Rate 500 g/ha, Postemergence, scale 0 to 10, 0 no effect, 10 complete control
[8] = Rate 250 g/ha, Postemergence, scale 0 to 10, 0 is no effect, 10 is complete control
[9] = Preemergence, Rate 125 g/ha, 0 is no effect, 10 is complete control
[10] = Preemergence, scale of 0 to 10 where 0 is no effect and 10 is complete control
[11] = Postemergence, scale 0 to 10, 0 is no effect, 10 is complete control
[12] = Postemergence (flood test species), Rate 125 g/ha, scale of 0 to 10 where 0 is no effect and 10 is complete control
[13] = Rate 62 g/ha, Postemergence section, flood test species, scale of 0 to 10 where 0 is no effect and 10 is complete control
[14] = Rate 500 g/ha, listed under Postemergence (flood test species), scale 0 to 10, 0 no effect, 10 complete control
[15] = flood test, listed under Postemergence, Rate 250 g/ha, scale 0 to 10, 0 no effect, 10 complete control

CCc1noc(CC)c1-n1c(=O)on(C(=O)N(c2ccc(F)cc2)C(C)C)c1=O [Compound 102]
Cocklebur plant response rating (cocklebur; [1]): 0
Cocklebur plant response rating (cocklebur; [2]): 0
Cocklebur plant response rating (cocklebur; [3]): 0
Plant response rating, Cocklebur (cocklebur; [4]): 0
Plant response rating, Cocklebur (cocklebur; [5]): 0
Cocklebur plant response rating (cocklebur; [6]): 0
Cocklebur plant response rating (cocklebur; [7]): 0
Corn plant response rating (corn; [1]): 0
Corn plant response rating (corn; [2]): 0
Corn plant response rating (corn; [3]): 0
Plant response rating, Corn (corn; [4]): 0
Plant response rating, Corn (corn; [5]): 0
Corn plant response rating (corn; [6]): 0
Corn plant response rating (corn; [7]): 2
Crabgrass plant response rating (crabgrass; [1]): 0
Crabgrass plant response rating (crabgrass; [2]): 0
Crabgrass plant response rating (crabgrass; [3]): 0
Plant response rating, Crabgrass (crabgrass; [4]): 0
Plant response rating, Crabgrass (crabgrass; [5]): 0
Crabgrass plant response rating (crabgrass; [6]): 0
Crabgrass plant response rating (crabgrass; [7]): 5
Giant foxtail plant response rating (giant foxtail; [1]): 0
Giant foxtail plant response rating (giant foxtail; [2]): 0
Giant foxtail plant response rating (giant foxtail; [3]): 2
Plant response rating, Giant foxtail (giant foxtail; [4]): 4
Plant response rating, Giant foxtail (giant foxtail; [5]): 9
Giant foxtail plant response rating (giant foxtail; [6]): 0
Giant foxtail plant response rating (giant foxtail; [7]): 2
Morningglory plant response rating (morningglory; [1]): 0
Morningglory plant response rating (morningglory; [2]): 1
Morningglory plant response rating (morningglory; [3]): 0
Plant response rating, Morningglory (morningglory; [4]): 0
Plant response rating, Morningglory (morningglory; [5]): 0
Morningglory plant response rating (morningglory; [6]): 0
Morningglory plant response rating (morningglory; [7]): 3
Redroot pigweed plant response rating (pigweed; [1]): 0
Redroot pigweed plant response rating (pigweed; [3]): 0
Plant response rating, Redroot pigweed (pigweed; [4]): 0
Plant response rating, Redroot pigweed (pigweed; [5]): 0
Redroot pigweed plant response rating (pigweed; [6]): 0
Plant response rating, Redroot pigweed (pigweed; [8]): 0
Redroot pigweed plant response rating (pigweed; [7]): 0
Rape plant response rating (rape; [1]): 0
Rape plant response rating (rape; [2]): 0
Rape plant response rating (rape; [3]): 0
Plant response rating, Rape (rape; [4]): 0
Plant response rating, Rape (rape; [5]): 0
Rape plant response rating (rape; [6]): 0
Rape plant response rating (rape; [7]): 0
Soybean plant response rating (soybean; [1]): 0
Soybean plant response rating (soybean; [3]): 0
Plant response rating, Soybean (soybean; [4]): 0
Plant response rating, Soybean (soybean; [5]): 0
Soybean plant response rating (soybean; [6]): 0
Plant response rating, Soybean (soybean; [8]): 0
Soybean plant response rating (soybean; [7]): 0
Sugarbeets plant response rating (sugar beet; [1]): 0
Sugarbeets plant response rating (sugar beet; [3]): 0
Sugarbeets plant response rating (0 to 10 scale) (sugar beet; [9]): 0
Plant response rating, Sugarbeets (sugar beet; [10]): 0
Sugarbeets plant response rating (sugar beet; [6]): 0
Plant response rating, Sugarbeets (sugar beet; [11]): 0
Sugarbeets plant response rating (sugar beet; [7]): 0
Velvetleaf plant response rating (velvetleaf; [1]): 0
Velvetleaf plant response rating (velvetleaf; [3]): 0
Velvetleaf plant response rating (0 to 10 scale) (velvetleaf; [9]): 0
Plant response rating, Velvetleaf (velvetleaf; [10]): 0
Velvetleaf plant response rating (velvetleaf; [6]): 0
Plant response rating, Velvetleaf (velvetleaf; [11]): 0
Velvetleaf plant response rating (velvetleaf; [7]): 3
Wheat plant response rating (wheat; [1]): 0
Wheat plant response rating (wheat; [3]): 0
Wheat plant response rating (0 to 10 scale) (wheat; [9]): 0
Plant response rating, Wheat (wheat; [10]): 0
Wheat plant response rating (wheat; [6]): 0
Plant response rating, Wheat (wheat; [11]): 0
Wheat plant response rating (wheat; [7]): 0
Wild oats plant response rating (wild oat; [1]): 0
Wild oats plant response rating (wild oat; [3]): 0
Wild oats plant response rating (0 to 10 scale) (wild oat; [9]): 0
Plant response rating, Wild oats (wild oat; [10]): 0
Wild oats plant response rating (wild oat; [6]): 0
Plant response rating, Wild oats (wild oat; [11]): 0
Wild oats plant response rating (wild oat; [7]): 0
Nutsedge plant response rating (purple nutsedge; [1]): 0
Nutsedge plant response rating (purple nutsedge; [2]): 0
Nutsedge plant response rating (purple nutsedge; [3]): 0
Plant response rating, Nutsedge (purple nutsedge; [4]): 0
Plant response rating, Nutsedge (purple nutsedge; [5]): 0
Nutsedge plant response rating (purple nutsedge; [6]): 0
Nutsedge plant response rating (purple nutsedge; [7]): 0
Rice plant response rating (rice; [12]): 0
Rice plant response rating (rice; [13]): 0
Plant response rating, Rice (rice; Rate 250 g/ha, Postemergence (flood test), scale 0 to 10, 0 is no effect, 10 is complete control): 0
Rice plant response rating (rice; [14]): 0
Ducksalad plant response rating (duck salad; [12]): 0
Ducksalad plant response rating (duck salad; [13]): 0
Ducksalad plant response rating (duck salad; [14]): 0
Ducksalad plant response rating (duck salad; [15]): 0
Barnyardgrass plant response rating (bamyardgrass; Postemergence, Rate 62 g/ha, scale 0 to 10, 0 is no effect, 10 is complete control): 0
Barnyardgrass plant response rating (bamyardgrass; Rate 125 g/ha, Postemergence section (flood test species), scale 0 to 10, 0 no effect, 10 complete control): 0
Barnyardgrass plant response rating (bamyardgrass; [14]): 0
Barnyardgrass plant response rating (bamyardgrass; [15]): 0
